In US20060040957A1, “BICYCLIC PYRIMIDINE MATRIX METALLOPROTEINASE INHIBITORS” (priority 2001, published 2006) one finds IC50 and melting point data, which are given here for 16 compounds.

For data set [1], the target named is T1, MMP-7FL (full length matrilysin) (Homo sapiens, UniProt P09237).
T1 sequence (P09237 95-267): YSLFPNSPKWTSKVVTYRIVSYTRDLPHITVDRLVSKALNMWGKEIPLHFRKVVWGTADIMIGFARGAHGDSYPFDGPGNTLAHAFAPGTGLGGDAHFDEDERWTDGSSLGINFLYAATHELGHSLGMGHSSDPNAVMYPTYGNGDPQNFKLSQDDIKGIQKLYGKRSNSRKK
The data set is described as follows: Thiopeptolide substrate hydrolysis assay, MMP-7FL. Type of data set: biochemical. Particulars: HEPES pH 7.0, 22° C., read-out: IC50 (μM) Versus Certain MMPs: MMP-07 FL. From the text:
(§1) The invention compounds of Formula I have been evaluated in standard assays for their ability to inhibit the catalytic activity of various MMP enzymes.
(§2) Thiopeptolide substrates show virtually no decomposition or hydrolysis at or below neutral pH in the absence of a matrix metalloproteinase enzyme.
(§3) Several representative compounds have been evaluated for their ability to inhibit various matrix metalloproteinase enzymes.

In data set [2] the target is T2, MMP-2FL (full length Gelatinase A) (Homo sapiens, UniProt P08253).
T2 sequence (P08253 110-660): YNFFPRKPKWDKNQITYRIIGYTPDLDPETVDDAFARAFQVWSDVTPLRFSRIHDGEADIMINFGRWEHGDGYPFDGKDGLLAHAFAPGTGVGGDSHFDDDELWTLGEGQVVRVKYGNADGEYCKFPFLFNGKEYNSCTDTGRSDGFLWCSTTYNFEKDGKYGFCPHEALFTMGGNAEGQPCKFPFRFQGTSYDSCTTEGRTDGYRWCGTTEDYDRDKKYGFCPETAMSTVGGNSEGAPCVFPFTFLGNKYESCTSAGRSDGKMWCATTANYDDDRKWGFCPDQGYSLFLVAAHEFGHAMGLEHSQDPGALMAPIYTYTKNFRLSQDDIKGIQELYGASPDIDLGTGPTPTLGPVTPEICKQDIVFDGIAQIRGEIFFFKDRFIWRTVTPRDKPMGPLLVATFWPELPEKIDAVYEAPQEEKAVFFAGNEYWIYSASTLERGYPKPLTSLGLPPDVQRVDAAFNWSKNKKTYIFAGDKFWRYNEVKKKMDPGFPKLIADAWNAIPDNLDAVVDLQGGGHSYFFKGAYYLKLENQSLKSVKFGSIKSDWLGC
The data set is described as follows: Thiopeptolide substrate hydrolysis assay, MMP-2FL. The class given is biochemical. Particulars: HEPES pH 7.0, 22° C., read-out: IC50 (μM) Versus Certain MMPs: MMP-02 FL.
Text: as §1, §2, §3

In data set [3] the target is MMP-13CD (catalytic domain of collagenase 3) (Homo sapiens, UniProt P45452). In words: Thiopeptolide substrate hydrolysis assay, MMP-13CD. The class given is biochemical. The following applies: thiopeptolide substrate, HEPES pH 7.0, 22° C.
Text: as §2

In data set [4] the target is MMP-9FL (full length Gelatinase B) (Homo sapiens, UniProt P14780). The data set is described as follows: Thiopeptolide substrate hydrolysis assay, MMP-9FL. The class given is biochemical. Particulars: HEPES pH 7.0, 22° C., read-out: IC50 (μM) Versus Certain MMPs: MMP-09 FL.
Chain of MMP-9FL (full length Gelatinase B) (P14780 94-707, species assumed): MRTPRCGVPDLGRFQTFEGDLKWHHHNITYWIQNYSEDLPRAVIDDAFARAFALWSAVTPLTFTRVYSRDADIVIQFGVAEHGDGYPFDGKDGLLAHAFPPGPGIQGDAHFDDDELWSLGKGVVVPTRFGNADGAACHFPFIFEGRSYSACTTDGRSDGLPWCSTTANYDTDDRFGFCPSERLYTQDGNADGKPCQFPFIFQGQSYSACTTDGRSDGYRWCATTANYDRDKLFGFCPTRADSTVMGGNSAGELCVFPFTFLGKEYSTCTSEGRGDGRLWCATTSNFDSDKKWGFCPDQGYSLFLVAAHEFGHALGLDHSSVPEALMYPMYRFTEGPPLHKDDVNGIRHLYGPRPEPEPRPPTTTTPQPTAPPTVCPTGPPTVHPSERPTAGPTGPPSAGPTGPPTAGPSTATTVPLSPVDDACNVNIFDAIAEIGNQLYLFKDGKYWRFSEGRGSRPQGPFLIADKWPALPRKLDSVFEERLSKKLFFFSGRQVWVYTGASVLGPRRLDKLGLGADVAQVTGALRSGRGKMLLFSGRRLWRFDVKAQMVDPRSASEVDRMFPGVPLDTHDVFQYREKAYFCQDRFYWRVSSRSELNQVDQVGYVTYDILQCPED
Text: as §1, §2, §3

For data set [5], the target named is MMP-14CD (catalytic domain of MMP-14) (Homo sapiens, UniProt P50281). The data set is described as follows: Thiopeptolide substrate hydrolysis assay, MMP-14CD. The class given is biochemical. The following applies: HEPES pH 7.0, 22° C., read-out: IC50 (μM) Versus Certain MMPs: MMP-14 CD.
Text: as §1, §2, §3

The target in data set [6] is T3, MMP-1FL (full length interstitial collagenase) (Homo sapiens, UniProt P03956).
T3 sequence (P03956 100-469): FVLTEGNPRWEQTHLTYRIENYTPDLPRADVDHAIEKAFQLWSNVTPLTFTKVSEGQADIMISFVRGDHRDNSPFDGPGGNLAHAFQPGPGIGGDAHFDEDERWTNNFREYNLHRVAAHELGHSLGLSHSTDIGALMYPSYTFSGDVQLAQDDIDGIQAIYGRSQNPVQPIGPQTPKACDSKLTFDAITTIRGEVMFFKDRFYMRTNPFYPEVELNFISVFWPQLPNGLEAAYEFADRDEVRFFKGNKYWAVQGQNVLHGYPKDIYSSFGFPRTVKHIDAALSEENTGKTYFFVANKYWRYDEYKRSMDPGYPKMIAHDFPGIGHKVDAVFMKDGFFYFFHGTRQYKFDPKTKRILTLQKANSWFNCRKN
The data set is described as follows: Thiopeptolide substrate hydrolysis assay, MMP-1FL. The class given is biochemical. Particulars: HEPES pH 7.0, 22° C., read-out: IC50 (μM) Versus Certain MMPs: MMP-01 FL.
Text: as §1, §2, §3

Data set [7] has as its target MMP-3CD (catalytic domain of stromelysin-1) (Homo sapiens, UniProt P08254). The data set is described as follows: Thiopeptolide substrate hydrolysis assay, MMP-3CD. The class given is biochemical. Particulars: MES buffer pH 6.0, read-out: IC50 (μM) Versus Certain MMPs: MMP-03 CD. The method, then: as §1, §2, §3
It should be appreciated that the assay buffer used with MMP-3CD was 50 mM N-morpholinoethane sulfonate (−MES=) at pH 6.0 rather than the HEPES buffer at pH 7.0 described above.

The mark [8] stands for this setting: read-out: IC50 (μM) Versus Certain MMPs: MMP-13 CD.
The mark [9] stands for this setting: IC50 (μM) Versus Certain MMPs: MMP-13 CD.

Where a name gives a salt, the structure may show the parent alone. Read-outs that look alike come from different tables or passages of the source.

What is called IC50 is the concentration at which inhibition is half-maximal. As a reminder, the melting point is the temperature of the solid-liquid transition.

Chain of MMP-3CD (catalytic domain of stromelysin-1) (P08254 100-272 limits assumed): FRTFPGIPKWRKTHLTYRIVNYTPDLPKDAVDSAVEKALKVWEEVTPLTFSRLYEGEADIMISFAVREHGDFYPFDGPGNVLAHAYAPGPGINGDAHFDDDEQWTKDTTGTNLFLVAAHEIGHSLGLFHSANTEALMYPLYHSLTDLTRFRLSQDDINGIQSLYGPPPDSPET

With `O=C(NCc1ccccc1)c1cn2c(=O)n(Cc3ccc(Cl)c(Cl)c3)c(=O)cc2s1` [Example 12, 6-(3,4-Dichlorobenzyl)-5,7-dioxo-6,7-dihydro-5H-thiazolo[3,2-c]pyrimidine-2-carboxylic acid benzylamide], the melting point lay in the range of 216 to 217 °C. Also, the IC50 in data set [1] stood at 20 µM. Also, the IC50 in data set [2] was more than 100 µM. For the same compound, the IC50 in data set [3] (setting [8]) came out at 0.293 µM. Further, in data set [4], the concentration for half-maximal inhibition (IC50) was more than 30 µM. The IC50 in data set [5] is more than 30 µM.
Consider `O=c1cc2sc(C(O)CCc3ccccc3)cn2c(=O)n1Cc1ccccc1` (stereo not drawn) [Example 5, 6-Benzyl-2-(1-hydroxy-3-phenyl-propyl)-thiazolo[3,2-c]pyrimidine-5,7-dione], for which the half-maximal inhibitory concentration (IC50) in data set [1] is more than 100 µM; in data set [6], more than 100 µM; in data set [2], more than 100 µM; in data set [3] (setting [8]) it was 14.3 µM; in data set [4] it was more than 100 µM; in data set [7], more than 100 µM. In addition, the IC50 in data set [5] is more than 100 µM.
As for `Cc1c(C(=O)OCc2ccccc2)sc2cc(=O)n(Cc3ccccc3)c(=O)n12` [Example 19, 6-Benzyl-3-methyl-5,7-dioxo-6,7-dihydro-5H-thiazolo[3,2-c]pyrimidine-2-carboxylic acid benzyl ester], the IC50 in data set [1] is 8.8 µM; in data set [6] it was more than 100 µM; in data set [2] it was more than 100 µM; in data set [3] (setting [9]), 21 µM; in data set [4], more than 30 µM; in data set [7], more than 100 µM. Besides, in data set [5], the IC50 was more than 30 µM.
On to `O=C(OCc1ccncc1)C1Cn2c(cc(=O)n(Cc3ccccc3)c2=O)S1` (stereo not drawn) [Example 21, 6-Benzyl-5,7-dioxo-2,3,6,7-tetrahydro-5H-thiazolo[3,2-c]pyrimidine-2-carboxylic acid pyridin-4-ylmethyl ester hydrochloride], for which the IC50 in data set [1], in data set [6], in data set [2], in data set [4], in data set [7] and in data set [5] was more than 100 µM each time.
`COc1cc(CNC(=O)c2cn3c(=O)n(Cc4ccccc4)c(=O)c(C)c3s2)ccn1` [Example 37a, hydrochloride]: the half-inhibitory concentration (IC50) came out at 26 µM in data set [1], 0.0208 µM in data set [3] (setting [9]) and 20.5 µM in data set [7].
For `Cc1c(=O)n(Cc2ccccc2)c(=O)n2cc(C(=O)NCc3ccc4nsnc4c3)sc12` [Example 42, 6-Benzyl-8-methyl-5,7-dioxo-6,7-dihydro-5H-thiazolo[3,2-c]pyrimidine-2-carboxylic acid(2,1,3-benzothiadiazol-5-ylmethyl)-amide], the IC50 is more than 30 µM in data set [1]; more than 30 µM in data set [2]; more than 30 µM in data set [4]; 10 µM in data set [7]; more than 100 µM in data set [5].
Consider `Cc1c(=O)n(Cc2ccc(S(C)(=O)=O)cc2)c(=O)n2cc(C(=O)NCc3ccncc3)sc12` [Example 81, 6-(4-Methanesulfonyl-benzyl)-8-methyl-5,7-dioxo-6,7-dihydro-5H-thiazolo[3,2-c]pyrimidine-2-carboxylic acid(pyridin-4-ylmethyl)-amide hydrochloride], for which, in data set [6], the concentration for half-maximal inhibition (IC50) was more than 100 µM.
Take `COC(=O)c1nc(Cn2c(=O)c(C)c3sc(C(=O)NCc4ccc(F)cc4)cn3c2=O)ncc1OC` [Example 78, 2-[2-(4-Fluoro-benzylcarbamoyl)-8-methyl-5,7-dioxo-7H-thiazolo[3,2-c]pyrimidin-6-ylmethyl]-5-methoxy-pyrimidine-4-carboxylic acid methyl ester]: the IC50 in data set [1], in data set [6], in data set [2], in data set [4], in data set [7] and in data set [5] was more than 30 µM throughout.
Turning to `O=C(OCc1ccncc1)c1cn2c(=O)n(Cc3ccccc3)c(=O)cc2s1` [Example 3, 6-Benzyl-5,7-dioxo-6,7-dihydro-5H-thiazolo[3,2-c]pyrimidine-2-carboxylic acid pyridin-4-ylmethyl ester hydrochloride], the 50% inhibitory concentration (IC50) in data set [1] is more than 100 µM; in data set [6], more than 100 µM; in data set [2], more than 100 µM; in data set [4] it was more than 100 µM; in data set [7], 11 µM; in data set [5], more than 100 µM.
The compound `COC(=O)c1ccc(Cn2c(=O)c(C)c3sc(C(=O)NCc4ccc(OC)cc4)cn3c2=O)cc1` [Example 103, 4-[2-(4-Methoxy-benzylcarbamoyl)-8-methyl-5,7-dioxo-7H-thiazolo[3,2-c]pyrimidin-6-ylmethyl]-benzoic acid methyl ester] had a melting point of 163 to 165 °C. The IC50 in data set [1] was more than 100 µM. Also, the half-maximal inhibitory concentration (IC50) in data set [2] was determined as 65 µM. Further, the 50% inhibitory concentration (IC50) in data set [3] (setting [8]) was 0.0106 µM. Further, the 50% inhibitory concentration (IC50) in data set [4] was more than 100 µM. Further, in data set [5], the IC50 is more than 100 µM.
Regarding `O=C(OCc1ccccc1)c1cn2c(=O)n(Cc3ccccc3)c(=O)cc2s1` [Example 1, 6-Benzyl-5,7-dioxo-6,7-dihydro-5H-thiazolo[3,2-c]pyrimidine-2-carboxylic acid benzyl ester], the IC50 in data set [1] is 96 µM; in data set [6] it was more than 100 µM; in data set [7], 23 µM; in data set [5] it was more than 30 µM.
`Cc1c(=O)n(Cc2ccc(C(=O)O)cc2)c(=O)n2cc(C(=O)NCc3ccncc3)sc12` [Example 62, 4-{8-Methyl-5,7-dioxo-2-[(pyridin-4-ylmethyl)-carbamoyl]-7H-thiazolo[3,2-c]pyrimidin-6-ylmethyl}-benzoic acid trifluoro-acetate]: the 50% inhibitory concentration (IC50) in data set [6] is more than 100 µM.
The same measure, in the same setting: under `Cc1c(=O)n(Cc2ccccc2)c(=O)n2cc(C(=O)OCc3ccccc3)sc12` [Example 2, 6-Benzyl-8-methyl-5,7-dioxo-6,7-dihydro-5H-thiazolo[3,2-c]pyrimidine-2-carboxylic acid benzyl ester] stands more than 100 µM.
The compound `O=c1cc2sccn2c(=O)n1Cc1ccc(Cl)cc1` [6-(4-Chlorobenzyl)-thiazolo[3,2-c]pyrimidine-5,7-dione] yielded a melting point of 152 to 153.5 °C. Further, the IC50 in data set [3] (setting [8]) is more than 100 µM.
On to `Cc1c(=O)n(Cc2ccccc2)c(=O)n2cc(C(=O)NCc3ccc4[nH]ccc4c3)sc12` [Example 34, 6-Benzyl-8-methyl-5,7-dioxo-6,7-dihydro-5H-thiazolo[3,2-c]pyrimidine-2-carboxylic acid(1H-indol-5-ylmethyl)-amide], for which the melting point was 189 to 191 °C. This compound also had an IC50 in data set [3] (setting [9]) of 23 µM.
`COC(=O)c1ccc(Cn2c(=O)c(C)c3sc(C(=O)NCc4ccc(F)cc4)cn3c2=O)cc1OC.Cl` [Example 69, 4-[2-(4-Fluoro-benzylcarbamoyl)-8-methyl-5,7-dioxo-7H-thiazolo[3,2-c]pyrimidin-6-ylmethyl]-2-methoxy-benzoic acid methyl ester] displayed a melting point of 191 to 193 °C. Also, the IC50 in data set [1] is more than 30 µM. Moreover, the IC50 in data set [2] is more than 30 µM. In addition, the IC50 in data set [4] was more than 30 µM. In addition, the 50% inhibitory concentration (IC50) in data set [7] was 10 µM. In data set [5], the half-maximal inhibitory concentration (IC50) was more than 30 µM.
